Laboratory results reported in patent US6417235B2, “Method and use of α-amino-β-mercapto-ethane derivatives as dicarbonyl scavengers for treatment of conditions resulting from protein, lipid, and DNA damage” (University of Kentucky Research Foundation, priority 2000, dated 2002).

Key:
[1] = tested on: histone H1; assay: Histone H1 crosslinking by 12% SDS-PAGE with silver staining; type: biochemical, calf; settings: 5 mM; histone H1, ADP-ribose reaction system
Description: The following screening scheme is used (see Table 1): AGE-fluorescence is determined at the beginning and after five days of incubation. Test compounds that are inherently fluorescent (designated false negatives) were identified by the initial fluorescence measurement (See Table 1, NADH for example). Since these are compounds of uncertain activity, they are diverted directly to the second stage of the screen. Aminoguanidine, a known glycation inhibitory agent, was used as a positive control for suppression of the increase on AGE-fluorescence. After five days incubation and plate reading, fluorescence quenchers (designated false positives) are excluded by measuring the quenching activity of the test compound by addition of AGE modified protein having known fluorescence activity to one microtiter plate well containing test compound in the complete reaction mixture. For this, AGE-BSA is used as the AGE-type fluorescence standard. This AGE-BSA test excludes false positives compounds that function by fluorescence quenching. If fluorescence quenching occurs the test compound is excluded from further screening. […] The protein is visualized by silver staining of the gel. […] A compound that passes the first and second stage of the screen is considered a glycation inhibitor and is further evaluated for biological activity as described below. […]

[2] = tested on: glycation of histone H1 by ADP-ribose; assay: Screening of inhibitors of nonoxidative advanced glycation: AGE-fluorescence on 96 well-microtiter plate; type: biochemical, calf; settings: (± SEM, n = 2); for AGE-fluorescence (day 5): complete reaction under air
Description: All operations were carried out at 4° C. Chromatin was isolated from fresh calf thymus by extraction with 0.14 M NaCl, 0.05 M Na2S2O5, as described earlier in Wondrak supra. After repeated extraction with 5% HCl)4 and centrifugation (1500 g), histone H1 was precipitated from the supernatant by addition of TCA (20% final concentration v/v). The histone H1 precipitate was colleted by centrifugation (12,000 g) and deionized water. After extensive dialysis (MW cut-off: 12,000-14,000) against water for 48 h, the sample was lyophilized and the protein was stored at 4° C. SDS-PAGE (12%) was used to analyze the purity of the preparation.
Earlier studies have reported that D-penicillamine inhibits collagen crosslinking and AGE fluorescence caused by sugars (McPherson, J. D., Shilton, B. H., and Walton, D. J. 1988. Role of Fructose in Glycation and Cross-Linking of Proteins. Biochemistry 27, 1901-1907) and reaction of D-penicillamine with aldehyde groups of proteins (Deshmukh, K., and Nimm, M. E. 1969. A Defect in the Intramolecular and Intermolecular Cross-linking of Collagen caused by Penicillamine. J. Biol. Chem. 244, 1787-1795). A number of different penicillamines and penicillamine derivatives were tested to determine the inhibition of AGE-fluorescence on histone H1 at physiological pH. The reaction conditions for the glycation of histone H1 by ADP-ribose mimic physiological conditions to the extent possible. Reaction mixtures contain 1.5 mg/ml histone Hl, 1.0 mM ADP-ribose, 50 mM potassium phosphate buffer, pH 7.4, 37° C. D,L-penicillamine; L-penicillamine; D-penicllamine; D-penicillaminedisulfide and N,S- isopropylidine-D-penicillamine were tested in concentrations of 1,5 and 10 mM. The detected reaction parameter representing the accumulation of protein damage is AGE-fluorescence ((λex=[…]), which is suppressed by the presence of a compound with inhibitory activity. Generation of AGE-type fluorescence (λex=355 nm; λem=405 nm) was monitored over time at 37° C; which is in the range of the broad excitation/emission maxima of AGE compounds. To allow high throughput sample processing on 96 well microtiter plates, the reaction volumes are 300 μl. Fluorescence on the 96-well microtiter plates was measured using an automated microtiter fluorescence reader. Fluorescence of the 1 ml samples of the glycation reaction mixtures was measured using a Hitachi F-200 fluorescence spectophotometer, and prior to measurement the protein sample is dialyzed extensively against water (MW cutoff=[…]), lyophilized and reconstituted in reaction buffer. For inhibitor screening the plate is read on a Fluoroskan II plate reader (Titertek, ICN) at the excitation/emission wavelengths set forth above at a bandwidth of 35 nm.
The following screening scheme is used (see Table 1): AGE-fluorescence is determined at the beginning and after five days of incubation. Test compounds that are inherently fluorescent (designated false negatives) were identified by the initial fluorescence measurement (See Table 1, NADH for example). Since these are compounds of uncertain activity, they are diverted directly to the second stage of the screen. Aminoguanidine, a known glycation inhibitory agent, was used as a positive control for suppression of the increase on AGE-fluorescence. After five days incubation and plate reading, fluorescence quenchers (designated false positives) are excluded by measuring the quenching activity of the test compound by addition of AGE modified protein having known fluorescence activity to one microtiter plate well containing test compound in the complete reaction mixture. For this, AGE-BSA is used as the AGE-type fluorescence standard. This AGE-BSA test excludes false positives compounds that function by fluorescence quenching. If fluorescence quenching occurs the test compound is excluded from further screening. […] The protein is visualized by silver staining of the gel. […]

CC(C)(S)[C@@H](N)C(=O)O [D-Penicillamine]
inhibition of histone H1 crosslinking [1]: inhibit histone H1 crosslinking
AGE-fluorescence (day 0) ([2]; compound 1 mM): 1.2 (0.0) relative units
AGE-fluorescence (day 5) ([2]; compound 1 mM): 11 (0.6) relative units
AGE-fluorescence (day 0) ([2]; compound 5 mM): 1.1 (0.1) relative units
AGE-fluorescence (day 5) ([2]; compound 5 mM): 2.9 (0.3) relative units
AGE-fluorescence (day 0) ([2]; compound 10 mM): 1.1 (0.0) relative units
AGE-fluorescence (day 5) ([2]; compound 10 mM): 1.4 (0.1) relative units
